# Data published in paper PMC11277489, “Novel Piperazine Derivatives of Vindoline as Anticancer Agents” (International Journal of Molecular Sciences, 2024).
# System: SK-MEL-5
# Assay: NCI60 one-dose screen (10 μM), Melanoma
# Assay type: cell-based, human
# Conditions: Homo sapiens; 10 μM; SK-MEL-5, Melanoma; read-out: Growth percent rate
row,SMILES,activity at 10 µM [%]
1,"CCC12C=CCN3CCC4(c5cc(NC(=O)CCl)c(OC)cc5N(C)C4C(O)(C(=O)OC)C1OC(C)=O)C32 (stereo not drawn) [Compound 12, 10-chloroacetamidovindoline]",-17.6
2,CCC12C=CCN3CCC4(c5cc(NC(=O)CN6CCN(C)CC6)c(OC)cc5N(C)C4C(O)(C(=O)OC)C1OC(C)=O)C32 (stereo not drawn) [Compound 16],102
3,CC[C@]12C=CCN3CC[C@@]4(c5ccc(OC)cc5N(C)[C@H]4[C@@](O)(C(=O)OC)[C@@H]1OC(=O)CCC(=O)N1CCN(C)CC1)[C@@H]32 [Compound 27],91.5

# System: SR
# Assay: NCI60 one-dose screen (10 μM), Leukemia
# Assay type: cell-based
# Conditions: Homo sapiens, 10 μM, Leukemia, read-out: Growth percent rate
row,SMILES,activity at 10 µM [%]
1,CCC12C=CCN3CCC4(c5cc(NC(=O)CN6CCN(C)CC6)c(OC)cc5N(C)C4C(O)(C(=O)OC)C1OC(C)=O)C32 (stereo not drawn) [Compound 16],93.8

# System: M14
# Assay: NCI60 one-dose screen (10 μM), Melanoma
# Assay type: cell-based
# Conditions: Homo sapiens; 10 μM; M14, Melanoma; read-out: Growth percent rate
row,SMILES,activity at 10 µM [%]
1,"CCC12C=CCN3CCC4(c5cc(NC(=O)CCl)c(OC)cc5N(C)C4C(O)(C(=O)OC)C1OC(C)=O)C32 (stereo not drawn) [Compound 12, 10-chloroacetamidovindoline]",37
2,CCC12C=CCN3CCC4(c5cc(NC(=O)CN6CCN(C)CC6)c(OC)cc5N(C)C4C(O)(C(=O)OC)C1OC(C)=O)C32 (stereo not drawn) [Compound 16],101
3,CC[C@]12C=CCN3CC[C@@]4(c5ccc(OC)cc5N(C)[C@H]4[C@@](O)(C(=O)OC)[C@@H]1OC(=O)CCC(=O)N1CCN(C)CC1)[C@@H]32 [Compound 27],114

# System: NCI-H226
# Assay: NCI60 one-dose screen (10 μM), Non-small Cell Lung Cancer
# Assay type: cell-based
# Conditions: Homo sapiens; 10 μM; NCI-H226, Non-small Cell Lung Cancer; read-out: Growth percent rate
row,SMILES,activity at 10 µM [%]
1,"CCC12C=CCN3CCC4(c5cc(NC(=O)CCl)c(OC)cc5N(C)C4C(O)(C(=O)OC)C1OC(C)=O)C32 (stereo not drawn) [Compound 12, 10-chloroacetamidovindoline]",43.5
2,CCC12C=CCN3CCC4(c5cc(NC(=O)CN6CCN(C)CC6)c(OC)cc5N(C)C4C(O)(C(=O)OC)C1OC(C)=O)C32 (stereo not drawn) [Compound 16],101
3,CC[C@]12C=CCN3CC[C@@]4(c5ccc(OC)cc5N(C)[C@H]4[C@@](O)(C(=O)OC)[C@@H]1OC(=O)CCC(=O)N1CCN(C)CC1)[C@@H]32 [Compound 27],80.4

# System: PC-3
# Assay: NCI60 one-dose screen (10 μM), Prostate Cancer
# Assay type: cell-based
# Conditions: Homo sapiens; 10 μM; PC-3, Prostate Cancer; read-out: Growth percent rate
row,SMILES,activity at 10 µM [%]
1,"CCC12C=CCN3CCC4(c5cc(NC(=O)CCl)c(OC)cc5N(C)C4C(O)(C(=O)OC)C1OC(C)=O)C32 (stereo not drawn) [Compound 12, 10-chloroacetamidovindoline]",24.5
2,CCC12C=CCN3CCC4(c5cc(NC(=O)CN6CCN(C)CC6)c(OC)cc5N(C)C4C(O)(C(=O)OC)C1OC(C)=O)C32 (stereo not drawn) [Compound 16],93.1
3,CC[C@]12C=CCN3CC[C@@]4(c5ccc(OC)cc5N(C)[C@H]4[C@@](O)(C(=O)OC)[C@@H]1OC(=O)CCC(=O)N1CCN(C)CC1)[C@@H]32 [Compound 27],101

# System: SK-OV-3
# Assay: NCI60 one-dose screen (10 μM), Ovarian Cancer
# Assay type: cell-based
# Conditions: Homo sapiens; 10 μM; SK-OV-3, Ovarian Cancer; read-out: Growth percent rate
row,SMILES,activity at 10 µM [%]
1,"CCC12C=CCN3CCC4(c5cc(NC(=O)CCl)c(OC)cc5N(C)C4C(O)(C(=O)OC)C1OC(C)=O)C32 (stereo not drawn) [Compound 12, 10-chloroacetamidovindoline]",33.9
2,CCC12C=CCN3CCC4(c5cc(NC(=O)CN6CCN(C)CC6)c(OC)cc5N(C)C4C(O)(C(=O)OC)C1OC(C)=O)C32 (stereo not drawn) [Compound 16],113
3,CC[C@]12C=CCN3CC[C@@]4(c5ccc(OC)cc5N(C)[C@H]4[C@@](O)(C(=O)OC)[C@@H]1OC(=O)CCC(=O)N1CCN(C)CC1)[C@@H]32 [Compound 27],106

# System: MDA-MB-468
# Assay: NCI60 one-dose screen (10 μM), Breast Cancer
# Assay type: cell-based
# Conditions: Homo sapiens; 10 μM; MDA-MB-468, Breast Cancer; read-out: Growth percent rate
row,SMILES,activity at 10 µM [%]
1,"CCC12C=CCN3CCC4(c5cc(NC(=O)CCl)c(OC)cc5N(C)C4C(O)(C(=O)OC)C1OC(C)=O)C32 (stereo not drawn) [Compound 12, 10-chloroacetamidovindoline]",-40.8
2,CC[C@]12C=CCN3CC[C@@]4(c5ccc(OC)cc5N(C)[C@H]4[C@@](O)(C(=O)OC)[C@@H]1OC(=O)CCC(=O)N1CCN(C)CC1)[C@@H]32 [Compound 27],124

# System: HOP-92
# Assay: NCI60 one-dose screen (10 μM), Non-small Cell Lung Cancer
# Assay type: cell-based
# Conditions: Homo sapiens; 10 μM; HOP-92, Non-small Cell Lung Cancer; read-out: Growth percent rate
row,SMILES,activity at 10 µM [%]
1,"CCC12C=CCN3CCC4(c5cc(NC(=O)CCl)c(OC)cc5N(C)C4C(O)(C(=O)OC)C1OC(C)=O)C32 (stereo not drawn) [Compound 12, 10-chloroacetamidovindoline]",34.3
2,CC[C@]12C=CCN3CC[C@@]4(c5ccc(OC)cc5N(C)[C@H]4[C@@](O)(C(=O)OC)[C@@H]1OC(=O)CCC(=O)N1CCN(C)CC1)[C@@H]32 [Compound 27],105

# System: MDA-MB-231/ATCC
# Assay: NCI60 one-dose screen (10 μM), Breast Cancer
# Assay type: cell-based, human
# Conditions: Homo sapiens; 10 μM; MDA-MB-231/ATCC, Breast Cancer; read-out: Growth percent rate
row,SMILES,activity at 10 µM [%]
1,CCC12C=CCN3CCC4(c5cc(NC(=O)CN6CCN(C)CC6)c(OC)cc5N(C)C4C(O)(C(=O)OC)C1OC(C)=O)C32 (stereo not drawn) [Compound 16],102

# System: OVCAR-5
# Assay: NCI60 one-dose screen (10 μM), Ovarian Cancer
# Assay type: cell-based
# Conditions: Homo sapiens; 10 μM; OVCAR-5, Ovarian Cancer; read-out: Growth percent rate
row,SMILES,activity at 10 µM [%]
1,CCC12C=CCN3CCC4(c5cc(NC(=O)CN6CCN(C)CC6)c(OC)cc5N(C)C4C(O)(C(=O)OC)C1OC(C)=O)C32 (stereo not drawn) [Compound 16],102

# System: BT-549
# Assay: NCI60 one-dose screen (10 μM), Breast Cancer
# Assay type: cell-based
# Conditions: Homo sapiens; 10 μM; BT-549, Breast Cancer; read-out: Growth percent rate
row,SMILES,activity at 10 µM [%]
1,"CCC12C=CCN3CCC4(c5cc(NC(=O)CCl)c(OC)cc5N(C)C4C(O)(C(=O)OC)C1OC(C)=O)C32 (stereo not drawn) [Compound 12, 10-chloroacetamidovindoline]",14.7
2,CCC12C=CCN3CCC4(c5cc(NC(=O)CN6CCN(C)CC6)c(OC)cc5N(C)C4C(O)(C(=O)OC)C1OC(C)=O)C32 (stereo not drawn) [Compound 16],113
3,CC[C@]12C=CCN3CC[C@@]4(c5ccc(OC)cc5N(C)[C@H]4[C@@](O)(C(=O)OC)[C@@H]1OC(=O)CCC(=O)N1CCN(C)CC1)[C@@H]32 [Compound 27],88.6

# System: HCC-2998
# Assay: NCI60 one-dose screen (10 μM), Colon Cancer
# Assay type: cell-based
# Conditions: Homo sapiens; 10 μM; HCC-2998, Colon Cancer; read-out: Growth percent rate
row,SMILES,activity at 10 µM [%]
1,"CCC12C=CCN3CCC4(c5cc(NC(=O)CCl)c(OC)cc5N(C)C4C(O)(C(=O)OC)C1OC(C)=O)C32 (stereo not drawn) [Compound 12, 10-chloroacetamidovindoline]",24.2
2,CCC12C=CCN3CCC4(c5cc(NC(=O)CN6CCN(C)CC6)c(OC)cc5N(C)C4C(O)(C(=O)OC)C1OC(C)=O)C32 (stereo not drawn) [Compound 16],106
3,CC[C@]12C=CCN3CC[C@@]4(c5ccc(OC)cc5N(C)[C@H]4[C@@](O)(C(=O)OC)[C@@H]1OC(=O)CCC(=O)N1CCN(C)CC1)[C@@H]32 [Compound 27],86.5

# System: HT29
# Assay: NCI60 one-dose screen (10 μM), Colon Cancer
# Assay type: cell-based
# Conditions: Homo sapiens, HT-29; 10 μM; HT29, Colon Cancer; read-out: Growth percent rate
row,SMILES,activity at 10 µM [%]
1,"CCC12C=CCN3CCC4(c5cc(NC(=O)CCl)c(OC)cc5N(C)C4C(O)(C(=O)OC)C1OC(C)=O)C32 (stereo not drawn) [Compound 12, 10-chloroacetamidovindoline]",54.1
2,CCC12C=CCN3CCC4(c5cc(NC(=O)CN6CCN(C)CC6)c(OC)cc5N(C)C4C(O)(C(=O)OC)C1OC(C)=O)C32 (stereo not drawn) [Compound 16],104
3,CC[C@]12C=CCN3CC[C@@]4(c5ccc(OC)cc5N(C)[C@H]4[C@@](O)(C(=O)OC)[C@@H]1OC(=O)CCC(=O)N1CCN(C)CC1)[C@@H]32 [Compound 27],96.7

# System: UO-31
# Assay: NCI60 one-dose screen (10 μM), Renal Cancer
# Assay type: cell-based
# Conditions: Homo sapiens; 10 μM; UO-31, Renal Cancer; read-out: Growth percent rate
row,SMILES,activity at 10 µM [%]
1,CCC12C=CCN3CCC4(c5cc(NC(=O)CN6CCN(C)CC6)c(OC)cc5N(C)C4C(O)(C(=O)OC)C1OC(C)=O)C32 (stereo not drawn) [Compound 16],89.4

# System: NCI/ADR-RES
# Assay: NCI60 one-dose screen (10 μM), Ovarian Cancer
# Assay type: cell-based
# Conditions: Homo sapiens, 10 μM, Ovarian Cancer, read-out: Growth percent rate
row,SMILES,activity at 10 µM [%]
1,"CCC12C=CCN3CCC4(c5cc(NC(=O)CCl)c(OC)cc5N(C)C4C(O)(C(=O)OC)C1OC(C)=O)C32 (stereo not drawn) [Compound 12, 10-chloroacetamidovindoline]",79.4
2,CCC12C=CCN3CCC4(c5cc(NC(=O)CN6CCN(C)CC6)c(OC)cc5N(C)C4C(O)(C(=O)OC)C1OC(C)=O)C32 (stereo not drawn) [Compound 16],104
3,CC[C@]12C=CCN3CC[C@@]4(c5ccc(OC)cc5N(C)[C@H]4[C@@](O)(C(=O)OC)[C@@H]1OC(=O)CCC(=O)N1CCN(C)CC1)[C@@H]32 [Compound 27],107

# System: T-47D
# Assay: NCI60 one-dose screen (10 μM), Breast Cancer
# Assay type: cell-based
# Conditions: Homo sapiens, T47D; 10 μM; T-47D, Breast Cancer; read-out: Growth percent rate
row,SMILES,activity at 10 µM [%]
1,CCC12C=CCN3CCC4(c5cc(NC(=O)CN6CCN(C)CC6)c(OC)cc5N(C)C4C(O)(C(=O)OC)C1OC(C)=O)C32 (stereo not drawn) [Compound 16],104

# System: UACC-62
# Assay: NCI60 one-dose screen (10 μM), Melanoma
# Assay type: cell-based
# Conditions: Homo sapiens; 10 μM; UACC-62, Melanoma; read-out: Growth percent rate
row,SMILES,activity at 10 µM [%]
1,"CCC12C=CCN3CCC4(c5cc(NC(=O)CCl)c(OC)cc5N(C)C4C(O)(C(=O)OC)C1OC(C)=O)C32 (stereo not drawn) [Compound 12, 10-chloroacetamidovindoline]",22.1
2,CCC12C=CCN3CCC4(c5cc(NC(=O)CN6CCN(C)CC6)c(OC)cc5N(C)C4C(O)(C(=O)OC)C1OC(C)=O)C32 (stereo not drawn) [Compound 16],98.9
3,CC[C@]12C=CCN3CC[C@@]4(c5ccc(OC)cc5N(C)[C@H]4[C@@](O)(C(=O)OC)[C@@H]1OC(=O)CCC(=O)N1CCN(C)CC1)[C@@H]32 [Compound 27],112

# System: SNB-19
# Assay: NCI60 one-dose screen (10 μM), CNS Cancer
# Assay type: cell-based
# Conditions: Homo sapiens; 10 μM; SNB-19, CNS Cancer; read-out: Growth percent rate
row,SMILES,activity at 10 µM [%]
1,"CCC12C=CCN3CCC4(c5cc(NC(=O)CCl)c(OC)cc5N(C)C4C(O)(C(=O)OC)C1OC(C)=O)C32 (stereo not drawn) [Compound 12, 10-chloroacetamidovindoline]",23.1
2,CCC12C=CCN3CCC4(c5cc(NC(=O)CN6CCN(C)CC6)c(OC)cc5N(C)C4C(O)(C(=O)OC)C1OC(C)=O)C32 (stereo not drawn) [Compound 16],105
3,CC[C@]12C=CCN3CC[C@@]4(c5ccc(OC)cc5N(C)[C@H]4[C@@](O)(C(=O)OC)[C@@H]1OC(=O)CCC(=O)N1CCN(C)CC1)[C@@H]32 [Compound 27],108

# System: DU-145
# Assay: NCI60 one-dose screen (10 μM), Prostate Cancer
# Assay type: cell-based
# Conditions: Homo sapiens; 10 μM; DU-145, Prostate Cancer; read-out: Growth percent rate
row,SMILES,activity at 10 µM [%]
1,"CCC12C=CCN3CCC4(c5cc(NC(=O)CCl)c(OC)cc5N(C)C4C(O)(C(=O)OC)C1OC(C)=O)C32 (stereo not drawn) [Compound 12, 10-chloroacetamidovindoline]",43.9
2,CCC12C=CCN3CCC4(c5cc(NC(=O)CN6CCN(C)CC6)c(OC)cc5N(C)C4C(O)(C(=O)OC)C1OC(C)=O)C32 (stereo not drawn) [Compound 16],115
3,CC[C@]12C=CCN3CC[C@@]4(c5ccc(OC)cc5N(C)[C@H]4[C@@](O)(C(=O)OC)[C@@H]1OC(=O)CCC(=O)N1CCN(C)CC1)[C@@H]32 [Compound 27],103
